Laboratory results as given in ChEMBL document CHEMBL4619718, “Discovery of cyclic guanidine-linked sulfonamides as inhibitors of LMTK3 kinase” (Bioorg Med Chem Lett, 2020).
pIC50: −log10 of the molar value. Activity calls are given as the source filed them. No cut-off for these calls is given here.

What was measured:
[1] = molecular target: Insulin-like growth factor 1 receptor (Homo sapiens) (UniProt P08069); assay: Inhibition of IGF1R (unknown origin) at 10 uM relative to control
[2] = molecular target: T1, Serine/threonine-protein kinase LMTK3 (Homo sapiens, UniProt Q96Q04); assay: Inhibition of LMTK3 (unknown origin)
T1 sequence (Q96Q04 whole entry): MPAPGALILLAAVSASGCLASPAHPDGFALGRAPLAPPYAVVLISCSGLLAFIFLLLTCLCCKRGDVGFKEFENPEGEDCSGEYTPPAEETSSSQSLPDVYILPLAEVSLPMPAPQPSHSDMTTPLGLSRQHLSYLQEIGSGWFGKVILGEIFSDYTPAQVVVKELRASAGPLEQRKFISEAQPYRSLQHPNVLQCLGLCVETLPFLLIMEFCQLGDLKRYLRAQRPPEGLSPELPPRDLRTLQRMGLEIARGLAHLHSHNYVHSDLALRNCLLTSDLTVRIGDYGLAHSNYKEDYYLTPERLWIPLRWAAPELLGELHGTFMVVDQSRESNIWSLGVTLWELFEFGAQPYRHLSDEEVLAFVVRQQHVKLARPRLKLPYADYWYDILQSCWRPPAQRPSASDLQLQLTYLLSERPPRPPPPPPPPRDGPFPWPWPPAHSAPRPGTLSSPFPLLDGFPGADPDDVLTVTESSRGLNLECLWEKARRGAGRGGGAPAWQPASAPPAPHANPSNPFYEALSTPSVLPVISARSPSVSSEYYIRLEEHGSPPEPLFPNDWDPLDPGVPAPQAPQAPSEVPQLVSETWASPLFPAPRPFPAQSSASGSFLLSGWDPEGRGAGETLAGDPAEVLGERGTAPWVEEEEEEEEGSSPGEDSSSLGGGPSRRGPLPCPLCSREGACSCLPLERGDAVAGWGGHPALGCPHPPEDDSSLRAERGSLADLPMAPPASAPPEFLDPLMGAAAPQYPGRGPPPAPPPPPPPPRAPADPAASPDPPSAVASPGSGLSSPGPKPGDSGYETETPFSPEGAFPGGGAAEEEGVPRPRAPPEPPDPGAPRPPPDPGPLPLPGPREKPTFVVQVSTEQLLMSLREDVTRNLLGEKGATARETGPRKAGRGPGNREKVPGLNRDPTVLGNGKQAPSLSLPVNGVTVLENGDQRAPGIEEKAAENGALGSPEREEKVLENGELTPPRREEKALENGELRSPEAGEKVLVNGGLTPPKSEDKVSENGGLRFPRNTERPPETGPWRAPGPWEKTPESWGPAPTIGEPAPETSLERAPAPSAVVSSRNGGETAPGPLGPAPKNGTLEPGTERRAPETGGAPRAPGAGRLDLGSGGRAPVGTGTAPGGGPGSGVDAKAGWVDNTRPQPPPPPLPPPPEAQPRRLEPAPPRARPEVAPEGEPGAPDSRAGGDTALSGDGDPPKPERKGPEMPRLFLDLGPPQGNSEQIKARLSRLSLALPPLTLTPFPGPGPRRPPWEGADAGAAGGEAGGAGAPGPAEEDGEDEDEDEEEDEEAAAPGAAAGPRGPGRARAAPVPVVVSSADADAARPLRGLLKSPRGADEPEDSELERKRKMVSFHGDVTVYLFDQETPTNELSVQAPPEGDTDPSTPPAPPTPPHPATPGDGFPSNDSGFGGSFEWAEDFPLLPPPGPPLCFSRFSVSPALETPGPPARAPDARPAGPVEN

[3] = molecular target: T2, Muscle, skeletal receptor tyrosine-protein kinase (Homo sapiens) (UniProt O15146); assay: Inhibition of MUSK (unknown origin) at 10 uM relative to control
T2 sequence (whole entry): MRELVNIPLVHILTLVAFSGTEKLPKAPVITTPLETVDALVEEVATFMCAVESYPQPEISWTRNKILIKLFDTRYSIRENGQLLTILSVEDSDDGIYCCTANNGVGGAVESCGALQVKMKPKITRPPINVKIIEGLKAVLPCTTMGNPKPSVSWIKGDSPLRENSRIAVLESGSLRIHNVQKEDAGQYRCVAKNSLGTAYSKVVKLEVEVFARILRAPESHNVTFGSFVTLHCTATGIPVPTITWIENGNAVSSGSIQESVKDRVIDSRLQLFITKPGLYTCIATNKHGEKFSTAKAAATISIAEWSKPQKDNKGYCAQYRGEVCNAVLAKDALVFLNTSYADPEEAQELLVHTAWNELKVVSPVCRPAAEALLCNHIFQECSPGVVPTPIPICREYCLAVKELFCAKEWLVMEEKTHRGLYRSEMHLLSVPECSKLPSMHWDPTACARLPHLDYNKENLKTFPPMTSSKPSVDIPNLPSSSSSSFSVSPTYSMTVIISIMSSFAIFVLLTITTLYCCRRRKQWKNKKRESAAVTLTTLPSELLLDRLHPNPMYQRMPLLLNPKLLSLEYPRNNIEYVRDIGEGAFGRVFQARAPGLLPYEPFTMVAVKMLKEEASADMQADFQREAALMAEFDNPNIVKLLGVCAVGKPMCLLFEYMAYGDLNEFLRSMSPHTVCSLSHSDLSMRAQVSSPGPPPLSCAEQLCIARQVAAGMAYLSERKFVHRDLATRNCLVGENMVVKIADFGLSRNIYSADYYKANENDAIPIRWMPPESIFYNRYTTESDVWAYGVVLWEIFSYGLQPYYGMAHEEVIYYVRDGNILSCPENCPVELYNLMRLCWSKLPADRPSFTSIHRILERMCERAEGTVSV

[4] = molecular target: T3, Serine/threonine-protein kinase LMTK3 (Homo sapiens) (UniProt Q96Q04); assay: Binding affinity to full length LMTK3 (unknown origin) assessed as thermal stabilization of protein at 54 degC incubated for 3 mins followed by 3 min incubated at room temperature by CETSA-based Western blot analysis
T3 sequence (whole entry): T1 sequence (Q96Q04 whole entry)

[5] = molecular target: Insulin receptor (Homo sapiens) (UniProt P06213); assay: Inhibition of INSR (unknown origin) at 10 uM relative to control
Chain of Insulin receptor (Homo sapiens) (P06213 28-758 limits assumed): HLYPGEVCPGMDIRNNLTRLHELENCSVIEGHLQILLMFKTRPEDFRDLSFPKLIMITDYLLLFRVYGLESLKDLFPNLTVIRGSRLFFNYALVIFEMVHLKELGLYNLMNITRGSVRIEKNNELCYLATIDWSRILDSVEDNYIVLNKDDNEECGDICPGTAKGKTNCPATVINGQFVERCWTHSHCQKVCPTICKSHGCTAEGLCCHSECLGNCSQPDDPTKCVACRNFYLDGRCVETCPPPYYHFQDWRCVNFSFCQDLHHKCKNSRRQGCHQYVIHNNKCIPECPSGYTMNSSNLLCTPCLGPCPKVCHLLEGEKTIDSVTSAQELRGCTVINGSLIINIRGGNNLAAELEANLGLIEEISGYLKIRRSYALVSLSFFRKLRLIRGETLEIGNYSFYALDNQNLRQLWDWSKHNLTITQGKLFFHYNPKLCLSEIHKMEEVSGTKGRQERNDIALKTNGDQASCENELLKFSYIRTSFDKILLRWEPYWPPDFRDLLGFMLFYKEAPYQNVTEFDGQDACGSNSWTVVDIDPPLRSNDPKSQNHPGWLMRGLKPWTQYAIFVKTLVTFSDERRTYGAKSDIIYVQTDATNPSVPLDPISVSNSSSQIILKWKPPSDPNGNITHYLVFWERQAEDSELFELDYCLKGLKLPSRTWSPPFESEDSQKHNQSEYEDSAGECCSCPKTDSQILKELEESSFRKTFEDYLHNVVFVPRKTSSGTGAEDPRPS
Chain of Insulin receptor (Homo sapiens) (P06213 763-1382 limits assumed): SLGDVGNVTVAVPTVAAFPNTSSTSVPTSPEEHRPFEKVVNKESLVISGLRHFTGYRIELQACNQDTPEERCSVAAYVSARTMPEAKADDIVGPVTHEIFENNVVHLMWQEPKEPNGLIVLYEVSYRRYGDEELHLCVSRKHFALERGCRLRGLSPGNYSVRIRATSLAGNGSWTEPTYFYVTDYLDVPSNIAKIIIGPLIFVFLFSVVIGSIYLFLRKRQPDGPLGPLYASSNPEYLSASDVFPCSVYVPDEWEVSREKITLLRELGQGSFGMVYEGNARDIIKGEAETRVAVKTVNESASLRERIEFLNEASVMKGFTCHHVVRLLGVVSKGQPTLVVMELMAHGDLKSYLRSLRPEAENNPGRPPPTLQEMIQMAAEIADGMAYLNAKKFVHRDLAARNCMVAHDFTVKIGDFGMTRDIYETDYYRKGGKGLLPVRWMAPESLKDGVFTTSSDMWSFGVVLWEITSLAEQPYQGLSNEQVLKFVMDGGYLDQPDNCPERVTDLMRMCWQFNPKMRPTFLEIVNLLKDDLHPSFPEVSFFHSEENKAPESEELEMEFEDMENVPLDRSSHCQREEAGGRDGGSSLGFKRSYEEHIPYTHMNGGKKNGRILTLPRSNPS

[6] = molecular target: BDNF/NT-3 growth factors receptor (Homo sapiens) (UniProt Q16620); assay: Inhibition of TRKB (unknown origin) at 10 uM relative to control
Chain of BDNF/NT-3 growth factors receptor (Homo sapiens) (Q16620 32-822 limits assumed): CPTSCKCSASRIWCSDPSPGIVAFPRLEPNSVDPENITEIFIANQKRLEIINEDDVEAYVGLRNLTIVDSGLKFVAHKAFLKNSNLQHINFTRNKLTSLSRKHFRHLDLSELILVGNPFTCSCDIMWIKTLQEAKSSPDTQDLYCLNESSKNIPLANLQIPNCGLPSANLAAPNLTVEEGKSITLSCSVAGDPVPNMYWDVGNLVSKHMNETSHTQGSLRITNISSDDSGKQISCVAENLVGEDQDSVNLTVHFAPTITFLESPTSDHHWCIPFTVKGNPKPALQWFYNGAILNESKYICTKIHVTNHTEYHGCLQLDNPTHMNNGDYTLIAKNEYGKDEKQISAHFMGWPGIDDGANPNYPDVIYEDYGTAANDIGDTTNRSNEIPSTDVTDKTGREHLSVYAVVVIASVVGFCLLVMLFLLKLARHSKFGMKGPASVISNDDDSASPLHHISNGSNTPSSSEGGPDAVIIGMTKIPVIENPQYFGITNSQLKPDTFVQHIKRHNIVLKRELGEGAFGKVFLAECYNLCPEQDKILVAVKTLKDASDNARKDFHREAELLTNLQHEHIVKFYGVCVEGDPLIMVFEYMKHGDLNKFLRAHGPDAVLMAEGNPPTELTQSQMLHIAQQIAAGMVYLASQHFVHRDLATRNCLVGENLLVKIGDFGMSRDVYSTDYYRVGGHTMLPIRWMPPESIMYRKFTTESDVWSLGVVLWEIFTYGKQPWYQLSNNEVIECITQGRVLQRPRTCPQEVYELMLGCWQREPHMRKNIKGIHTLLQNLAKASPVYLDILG

[7] = molecular target: BDNF/NT-3 growth factors receptor (Homo sapiens) (UniProt Q16620); conditions: 1.52 nM
Description: Inhibition of TRKB (unknown origin) at 1.52 nM relative to control

[8] = molecular target: T2, Muscle, skeletal receptor tyrosine-protein kinase (Homo sapiens); assay: Inhibition of MUSK (unknown origin) at 100 nM relative to control
MCF7 [9] = assay: Antiproliferative activity against human MCF7 cells at 20 uM incubated for 6 days by MTT assay relative to control; assay type: functional
T47D [10] = assay: Antiproliferative activity against human T47D cells at 20 uM incubated for 6 days by MTT assay relative to control; assay type: functional
[11] = molecular target: T3, Serine/threonine-protein kinase LMTK3 (Homo sapiens); assay: Binding affinity to full length LMTK3 (unknown origin) assessed as change in melting temperature at 10 uM by CETSA-based Western blot analysis
[12] = molecular target: T3, Serine/threonine-protein kinase LMTK3 (Homo sapiens); assay: Binding affinity to hyper glycosylated LMTK3 (unknown origin) assessed as change in melting temperature at 10 uM by CETSA-based Western blot analysis
MCF7 [13] = assay: Antiproliferative activity against human MCF7 cells at 5 uM incubated for 6 days by MTT assay relative to control; assay type: functional
T47D [14] = assay: Antiproliferative activity against human T47D cells at 5 uM incubated for 6 days by MTT assay relative to control; assay type: functional
T47D [15] = assay: Antiproliferative activity against human T47D cells at 10 uM incubated for 6 days by MTT assay relative to control; assay type: functional
MCF7 [16] = assay: Antiproliferative activity against human MCF7 cells at 10 uM incubated for 6 days by MTT assay relative to control; assay type: functional
[17] = molecular target: T3, Serine/threonine-protein kinase LMTK3 (Homo sapiens); assay: Binding affinity to full length LMTK3 (unknown origin) assessed as thermal stabilization of protein at 0.3 to 1 uM at 54 degC incubated for 3 mins followed by 3 min incubated at room temperature by CETSA-based Western blot analysis

Chain of Insulin-like growth factor 1 receptor (Homo sapiens) (P08069 31-736 limits assumed): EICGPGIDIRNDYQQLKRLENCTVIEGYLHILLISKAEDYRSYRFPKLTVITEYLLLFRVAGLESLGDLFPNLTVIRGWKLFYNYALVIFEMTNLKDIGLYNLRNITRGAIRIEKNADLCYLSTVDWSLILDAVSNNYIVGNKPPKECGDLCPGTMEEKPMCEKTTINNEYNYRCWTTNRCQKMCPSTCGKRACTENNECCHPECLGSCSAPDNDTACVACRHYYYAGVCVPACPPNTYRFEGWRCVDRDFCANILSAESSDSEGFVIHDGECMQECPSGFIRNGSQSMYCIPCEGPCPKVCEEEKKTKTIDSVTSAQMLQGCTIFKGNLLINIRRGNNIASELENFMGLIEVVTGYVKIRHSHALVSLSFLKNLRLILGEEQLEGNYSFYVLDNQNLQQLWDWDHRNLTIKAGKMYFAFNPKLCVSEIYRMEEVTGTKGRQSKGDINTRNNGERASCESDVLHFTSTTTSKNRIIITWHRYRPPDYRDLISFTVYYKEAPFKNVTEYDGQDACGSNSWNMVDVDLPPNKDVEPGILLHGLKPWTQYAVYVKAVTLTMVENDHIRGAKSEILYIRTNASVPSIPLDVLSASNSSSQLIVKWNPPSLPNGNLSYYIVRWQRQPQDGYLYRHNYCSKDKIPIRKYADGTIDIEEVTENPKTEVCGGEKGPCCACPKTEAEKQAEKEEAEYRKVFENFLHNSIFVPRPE
Chain of Insulin-like growth factor 1 receptor (Homo sapiens) (P08069 741-1367 limits assumed): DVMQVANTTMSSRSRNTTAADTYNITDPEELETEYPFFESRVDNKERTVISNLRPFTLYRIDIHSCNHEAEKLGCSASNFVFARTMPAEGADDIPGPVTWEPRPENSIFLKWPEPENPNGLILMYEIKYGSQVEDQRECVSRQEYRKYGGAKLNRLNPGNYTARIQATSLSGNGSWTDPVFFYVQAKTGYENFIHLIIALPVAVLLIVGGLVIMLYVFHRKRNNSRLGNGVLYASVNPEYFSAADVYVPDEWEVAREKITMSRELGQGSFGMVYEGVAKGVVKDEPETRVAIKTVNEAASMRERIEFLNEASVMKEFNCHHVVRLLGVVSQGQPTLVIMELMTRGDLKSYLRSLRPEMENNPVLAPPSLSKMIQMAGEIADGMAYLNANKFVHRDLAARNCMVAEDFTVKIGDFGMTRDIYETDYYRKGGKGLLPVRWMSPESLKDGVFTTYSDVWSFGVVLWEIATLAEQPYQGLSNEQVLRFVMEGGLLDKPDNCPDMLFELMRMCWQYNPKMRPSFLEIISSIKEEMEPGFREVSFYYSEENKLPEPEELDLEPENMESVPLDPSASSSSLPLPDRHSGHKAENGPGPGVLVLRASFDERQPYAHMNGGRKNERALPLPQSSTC

SMILES	inhibition [1] [%]	pIC50 [2]	inhibition [3] [%]	Activity [4]	inhibition [5] [%]	inhibition [6] [%]	inhibition [7] [%]	inhibition [8] [%]	Activity [11]	Activity [12]	Activity [17]	Activity (MCF7 [9]) [%]	Activity (T47D [10]) [%]	Activity (MCF7 [13]) [%]	Activity (T47D [14]) [%]	Activity (T47D [15]) [%]	Activity (MCF7 [16]) [%]
C[C@@]1(C(=O)Nc2ccc(F)nc2)CCCN1c1nc(Nc2cc(C3CC3)n[nH]2)c2cccn2n1 [BMS-754807]	–	5.50	–	–	–	–	> 95	75.1	–	–	–	–	–	–	–	–	–
CC(C)C[C@H]1CNC(=N)N1C[C@H](Cc1ccccc1)NS(=O)(=O)c1ccccc1	8.3	6.18	27.3	–	2.3	2	–	–	–	–	–	100	100	–	–	–	–
N=C1NC[C@H](CC2CCCCC2)N1C[C@H](Cc1ccccc1)NS(=O)(=O)c1ccccc1	11.4	5.79	103	Active	18.4	10.6	–	–	Active	Active	Active	–	–	60	60	100	100
CN1CCN(c2ccc(C(=O)Nc3n[nH]c4ccc(Cc5cc(F)cc(F)c5)cc34)c(NC3CCOCC3)c2)CC1 [ENTRECTINIB]	–	5.33	–	–	–	–	> 95	54.1	–	–	–	–	–	–	–	–	–
Cc1ccc(S(=O)(=O)N[C@@H](Cc2ccc(O)cc2)CN2C(=N)NC[C@@H]2CC2CCCCC2)cc1	16.1	6.50	79.8	–	5.7	25.3	–	–	–	–	–	50	50	–	–	–	–

These reach a higher pIC50 [2]. Values come first.

inhibition [1] [%]	pIC50 [2]	inhibition [3] [%]	Activity [4]	inhibition [5] [%]	inhibition [6] [%]	inhibition [7] [%]	inhibition [8] [%]	Activity [11]	Activity [12]	Activity [17]	SMILES	Activity (MCF7 [9]) [%]	Activity (T47D [10]) [%]	Activity (MCF7 [13]) [%]	Activity (T47D [14]) [%]	Activity (T47D [15]) [%]	Activity (MCF7 [16]) [%]
16.1	6.65	56.8	inactive	0.1	16	–	–	–	–	–	N=C1NC[C@H](CC2CCCCC2)N1C[C@H](Cc1ccc(O)cc1)NS(=O)(=O)c1ccccc1Cl	–	–	–	–	–	–
15.9	6.68	19.8	–	7.3	0.1	–	–	–	–	–	CC(C)C[C@H]1CNC(=N)N1C[C@H](Cc1ccc(O)cc1)NS(=O)(=O)c1ccccc1Cl	–	–	–	–	–	–
7.8	6.51	22.2	–	3.9	0.8	–	–	–	–	–	Cc1ccc(S(=O)(=O)N[C@@H](Cc2ccc(O)cc2)CN2C(=N)NC[C@@H]2CC(C)C)cc1	–	–	–	–	–	–
